Results as given in US4230705A, “6-Phenyl-1,2,4-triazolo[4,3-b]pyridazines and their uses in treating anxiety” (American Cyanamid Company, priority 1976, dated 1980).

What was measured:
[1] = test system: Clonic Seizures Caused By Pentylenetetrazole; test: Protection against clonic seizures caused by pentylenetetrazole in rats; format: in vivo; settings: Rattus norvegicus; oral, 2% starch vehicle; pentylenetetrazole 21 to 23 mg./kg. intravenously at estimated time of peak effect; protection of 50% of rats; read-out: Medium Effective Oral Dose mg./kg. ED50 (converted)
Protocol: The anti-anxiety properties of the novel compounds of the present invention have been established in a test which indicates anxiolytic activity by the measure of protection from convulsions resulting from the administration of pentylenetetrazole. Graded dose levels of the compounds of this invention were administered orally, in a 2% starch vehicle, to groups of at least 5 rats. At the estimated time of peak effect, the rats were treated intravenously with pentylenetetrazole at a dose of 21 to 23 mg./kg. of body weight. This dose is estimated to cause clonic seizures in 99% of unprotected rats. The effective dose (ED50) of the test compound for protection of 50% of the animals is calculated by the method of D. H. Finney in "Statistical Methods in Biological Assay", Second Edition, Hafner Publishing Co., New York, 1964, pp. 456-457. Representative results are given in Table I which follows in comparison with chlordiazepoxide or meprobamate, which were tested in exactly the same manner. It has been reported [R. T. Hill and D. H. Tedeschi, "Animal Testing and Screening Procedures in Evaluating Psychotropic Drugs" in "An Introduction to Psychopharmacology", Eds. R. R. Rech and K. E. Moore, Raven Press, New York, pp. 237-288 (1971)] that there is a high degree of correlation between antagonism of pentylenetetrazole seizures in rats and anti-anxiety effects in higher warm-blooded animals.

[2] = test system: conflict situation in rats; test: Non-conditioned passive avoidance (conflict) procedure in rats; format: in vivo, Sprague-Dawley rats; settings: Rattus norvegicus; oral, 2% starch vehicle; 9 or more shocks in 5 minute test period; rats deprived of water 48 hours and food 24 hours; read-out: Median Effective Dose (ED50 mg./kg.)
Protocol: Another test which has been used to assess anti-anxiety effects is a non-conditioned passive avoidance procedure described by J. R. Vogel, B. Beer and D. E. Clody, "A Simple and Reliable Conflict Procedure for Testing Anti-Anxiety Agents", Psychopharmacologia, Vol. 21, pp. 1-7 (1971). A conflict situation is induced in rats by a modification of this method. To groups of six naive Sprague-Dawley rats (200-220 grams), previously deprived of water for forty-eight hours and food for 24 hours, are administered graded oral doses of test compound suspended in 2% starch vehicle also containing 2 drops of polyethylene glycol and polysorbate 80, or vehicle alone (controls). At the time of peak effect each rat is placed in a plexiglass box fitted with a drinkometer circuit connected between the stainless steel grid floor and a stainless steel drinking tube inserted in a hole in one of the walls of the box. […] The number of shocks received by the rat during a 5 minute test period is recorded. […]

Structure (SMILES) | ED50 [1] | ED50 [2]
Cc1nnc2ccc(-c3ccccc3)nn12 [3-methyl-6-phenyl-1,2,4-triazolo[4,3-b]pyridazine] | 3 mg/kg | 100 mg/kg
c1ccc(-c2ccc3nncn3n2)cc1 [6-phenyl-1,2,4-triazolo[4,3-b]pyridazine] | 9.5 mg/kg | 
CNC1=Nc2ccc(Cl)cc2C(c2ccccc2)=[N+]([O-])C1 [Chlordiazepoxide] | 2.5 mg/kg | 9.6 mg/kg
CCCC(C)(COC(N)=O)COC(N)=O [Meprobamate] | 22 mg/kg | 
